From ChEMBL document CHEMBL5029196, “Novel Isoindolone Compounds as HPK1 Inhibitors for Treating Cancer” (ACS Med Chem Lett, 2022)

Target: Mitogen-activated protein kinase kinase kinase kinase 1 (Homo sapiens, UniProt Q92918)
Assay: Inhibition of human full length recombinant HPK1 using 5FAM-AKRRRLSSLRACOOH as substrate preincubated for 20 mins and measured for 60 mins by microfluidic mobility shift assay

Sequence of Mitogen-activated protein kinase kinase kinase kinase 1 (Q92918 whole entry): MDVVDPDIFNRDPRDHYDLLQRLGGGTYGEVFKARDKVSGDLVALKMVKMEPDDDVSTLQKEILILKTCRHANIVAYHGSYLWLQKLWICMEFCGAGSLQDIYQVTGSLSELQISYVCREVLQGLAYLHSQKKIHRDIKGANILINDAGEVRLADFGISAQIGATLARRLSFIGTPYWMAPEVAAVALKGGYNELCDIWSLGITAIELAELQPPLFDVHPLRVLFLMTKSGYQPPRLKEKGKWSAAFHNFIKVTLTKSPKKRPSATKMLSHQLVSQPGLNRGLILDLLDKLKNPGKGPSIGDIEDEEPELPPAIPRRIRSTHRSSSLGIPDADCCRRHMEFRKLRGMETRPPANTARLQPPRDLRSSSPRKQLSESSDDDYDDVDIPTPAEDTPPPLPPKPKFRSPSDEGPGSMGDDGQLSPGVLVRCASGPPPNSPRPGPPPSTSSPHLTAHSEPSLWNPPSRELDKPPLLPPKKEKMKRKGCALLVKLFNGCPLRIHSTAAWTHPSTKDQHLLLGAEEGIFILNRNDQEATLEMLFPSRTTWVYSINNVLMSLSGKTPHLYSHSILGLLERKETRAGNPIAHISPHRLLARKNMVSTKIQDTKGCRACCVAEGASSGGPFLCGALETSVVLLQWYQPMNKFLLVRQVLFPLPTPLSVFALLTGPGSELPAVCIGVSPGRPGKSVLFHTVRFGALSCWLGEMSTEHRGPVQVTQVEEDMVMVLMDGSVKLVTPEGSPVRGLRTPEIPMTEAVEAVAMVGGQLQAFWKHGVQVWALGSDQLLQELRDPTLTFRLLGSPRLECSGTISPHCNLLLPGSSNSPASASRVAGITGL

| SMILES | Ki [nM] |
| --- | --- |
| COc1cc2c(c(S(N)(=O)=O)c1)CN(c1cccc(-c3nncn3C(C)C)n1)C2=O | 0.4 |
| CC[C@@H](CC(F)(F)F)n1cnnc1-c1cccc(N2Cc3c(CNC)cc(OC)cc3C2=O)n1 | 0.4 |
| CC[C@H](C)n1cnnc1-c1cccc(N2Cc3c(CNC)cc(N(C)C)cc3C2=O)n1 | 0.4 |

Now those with a lower Ki, led by results:

| Ki [nM] | SMILES |
| --- | --- |
| 0.2 | CNCc1cc(OC)cc2c1CN(c1cccc(-c3nncn3[C@@H](C)C3CC3)n1)C2=O |
| 0.3 | CC[C@H](C)n1cnnc1-c1cccc(N2Cc3c(CNC)cc(N4CCCC4)cc3C2=O)n1 |
| 0.3 | COc1cc(CN)c2c(c1)C(=O)N(c1cccc(-c3nncn3[C@@H](C)CC(F)(F)F)n1)C2 |
